# Measured values taken from BigSolDB 2.1.
structure (smiles),measurement,setting,value
CN1C(C(=O)Nc2ccccn2)=C(O)c2sc(Cl)cc2S1(=O)=O,solubility (mole fraction),"in ethanol, 298.15 K",1.3e-05
same,solubility (mole fraction),"in water, 298.15 K",3e-06
O=C(C(=O)c1ccccc1)c1ccccc1,solubility (mole fraction),"in 2,2,4-trimethylpentane, 298.15 K",0.00589
same,solubility (mole fraction),"in 4-methyl-2-pentanol, 298.15 K",0.0128
same,solubility (mole fraction),"in cyclohexane, 298.15 K",0.0107
same,solubility (mole fraction),"in dibutyl ether, 298.15 K",0.0335
same,solubility (mole fraction),"in isobutanol, 298.15 K",0.00969
same,solubility (mole fraction),"in isopentanol, 298.15 K",0.0128
same,solubility (mole fraction),"in isopropanol, 298.15 K",0.00831
same,solubility (mole fraction),"in methylcyclohexane, 298.15 K",0.0113
same,solubility (mole fraction),"in n-butanol, 298.15 K",0.0131
same,solubility (mole fraction),"in n-heptane, 298.15 K",0.00656
same,solubility (mole fraction),"in n-hexane, 298.15 K",0.00575
same,solubility (mole fraction),"in n-octane, 298.15 K",0.00724
same,solubility (mole fraction),"in n-octanol, 298.15 K",0.0169
same,solubility (mole fraction),"in n-pentanol, 298.15 K",0.015
same,solubility (mole fraction),"in n-propanol, 298.15 K",0.0118
same,solubility (mole fraction),"in sec-butanol, 298.15 K",0.011
CN1COCN(Cc2cnc(Cl)s2)C1=N[N+](=O)[O-],solubility (mole fraction),"in methanol, 288.15 K",0.00111
same,solubility (mole fraction),"in methanol, 293.15 K",0.00141
same,solubility (mole fraction),"in methanol, 298.15 K",0.00169
same,solubility (mole fraction),"in methanol, 303.15 K",0.00225
same,solubility (mole fraction),"in methanol, 308.15 K",0.00294
same,solubility (mole fraction),"in methanol, 313.15 K",0.00397
same,solubility (mole fraction),"in methanol, 318.15 K",0.00486
same,solubility (mole fraction),"in methanol, 323.15 K",0.0063
O=[N+]([O-])c1ccc(N/N=C/c2ccco2)cc1,solubility (mole fraction),"in water, 298.15 K",1.72e-07
Cc1ccc(-c2ncc(Cl)cc2-c2ccc(S(C)(=O)=O)cc2)cn1,solubility (mole fraction),"in methanol, 298.2 K",0.0379
same,solubility (mole fraction),"in propylene glycol, 298.2 K",0.0605
same,solubility (mole fraction),"in water, 298.2 K",1.58e-05
COc1ccccc1OCC(O)COC(N)=O (centres undefined),solubility (mole fraction),"in 1,4-dioxane, 298.15 K",0.00331
same,solubility (mole fraction),"in PEG-400, 298.15 K",0.0262
same,solubility (mole fraction),"in ethanol, 298.15 K",0.00436
same,solubility (mole fraction),"in methanol, 298.15 K",0.00425
same,solubility (mole fraction),"in propylene glycol, 298.15 K",0.00914
same,solubility (mole fraction),"in water, 298.15 K",0.000735
O=C1Nc2ccc(Cl)cc2C(c2ccccc2Cl)=NC1O (centres undefined),solubility (mole fraction),"in PEG-200, 303.2 K",0.0958
same,solubility (mole fraction),"in water, 303.2 K",3e-06
Clc1ccc(OCCCBr)cc1,solubility (mole fraction),"in ethanol, 273.15 K",0.0219
same,solubility (mole fraction),"in ethanol, 278.15 K",0.0281
same,solubility (mole fraction),"in ethanol, 283.15 K",0.0366
same,solubility (mole fraction),"in ethanol, 288.15 K",0.0488
same,solubility (mole fraction),"in ethanol, 293.15 K",0.0658
same,solubility (mole fraction),"in ethanol, 298.15 K",0.0933
same,solubility (mole fraction),"in ethanol, 303.15 K",0.142
O=C1N2CN3C(=O)N4CN5C(=O)N6CN7C(=O)N8CN9C(=O)N%10CN%11C(=O)N%12CN1C1C2N2CN%13C(=O)N(CN%14C(=O)N(CN%15C(=O)N(CN%16C(=O)N(CN%17C(=O)N(CN1C2=O)C%12C%11%17)C%10C9%16)C8C7%15)C6C5%14)C4C3%13 (centres undefined),solubility (mole fraction),"in water, 293.15 K",0.00231
same,solubility (mole fraction),"in water, 303.15 K",0.0027
same,solubility (mole fraction),"in water, 313.15 K",0.00336
same,solubility (mole fraction),"in water, 323.15 K",0.00403
same,solubility (mole fraction),"in water, 333.15 K",0.00481
same,solubility (mole fraction),"in water, 343.15 K",0.00573
same,solubility (mole fraction),"in water, 353.15 K",0.00662
C1CCCC1,solubility (mole fraction),"in water, 276.5 K",4.62e-05
same,solubility (mole fraction),"in water, 282.2 K",4.29e-05
same,solubility (mole fraction),"in water, 296.2 K",4.17e-05
CSCC[C@H](N)C(=O)O,solubility (mole fraction),"in water, 283.15 K",0.00531
same,solubility (mole fraction),"in water, 288.15 K",0.00555
same,solubility (mole fraction),"in water, 293.15 K",0.00625
same,solubility (mole fraction),"in water, 298.15 K",0.00681
same,solubility (mole fraction),"in water, 303.15 K",0.00724
same,solubility (mole fraction),"in water, 308.15 K",0.00787
same,solubility (mole fraction),"in water, 313.15 K",0.00837
O=c1cc[nH]c(=O)[nH]1,solubility (mole fraction),"in water, 298.15 K",0.000743
O=[N+]([O-])c1ccc(N/N=C/c2cccs2)cc1,solubility (mole fraction),"in water, 298.15 K",1.68e-07
